Measured values: patent US20160108135A1, “GHRELIN IN THE DIAGNOSIS OF CNS DISORDERS” (priority 2013, published 2016)
“Also recorded” adds a separate entry of the source. Ends that are not written are not given here. * marks the point of attachment. Octanoyl = CCCCCCCC(=O)*

What was measured:
[1] = test system: dividing cells (Ki67+) in the sub-granular zone of the dentate gyrus; test: Ki67 cell proliferation in hippocampal dentate gyrus of wild-type and ghsr-/- mice; format: in vivo; conditions: i.v. 48 μg/day for 7 days; for Ki67+ cells (cell proliferation) in the DG of adult wild-type mice: vs saline
Protocol: To further examine the role of ghrelin in enhancing cell proliferation in the SGZ, the effect of peripherally administered ghrelin in both wild-type and ghrelin-receptor null (ghsr^−/−) mice (Zigman et al. J. Clin. Invest (2005)115 (12:3564-72)) was analysed.
Adult growth hormone secretagogue receptor (GHSR)-null mice (8-10 weeks-old) and their wild-type littermates were used. These were derived from crosses between animals that were heterozygous for the GHSR-null allele and that had been backcrossed >10 generations onto a C57BL6/J genetic background. Metabolic aspects of these mice have been published (Davies et al. 2009 Molecular Endocrinology, 23(6), 914-24.).
Ghrelin was administered peripherally via an intravenous osmotic mini-pump at a rate of 1 μl/hour with a total of 48 μg/day to groups of 6 mice. Control groups were given peripheral saline.
After 7 days, mice were killed by cervical dislocation whole brain was removed and immediately snap frozen on dry ice.
(§1) Cell proliferation in the hippocampal dentate gyms was subsequently analysed using a one-in-fifteen series of 10 μm sections (150 μm apart) from each animal. These were stained for Ki67 immunofluorescence and a primary antibody rabbit anti-Ki67 (1:500 Abcam) applied. Immunolabelled cells were counted throughout the rostro-caudal extent of the granule cell layer and quantified.
(§2) Immunolabelled cells were counted bilaterally using a ×40 objective (Zeiss Axioscope) throughout the rostro-caudal extent of the granule cell layer (GCL). Resulting numbers were divided by the number of coronal sections analyzed and multiplied by the distance between each section to obtain an estimate of the number of cells per hippocampus (and divided by 2 to obtain the total per dentate gyms).
All experiments and analyses were performed blind to genotype and treatment.
Statistical analyses were carried out using GraphPad Prizm 6.0 for Mac. Statistical significance was assessed by unpaired two-tailed Student's t-test or one-way ANOVA with Bonferroni's post-hoc test unless described otherwise: *, P<0.05; **, P<0.01; ***, P<0.001.
(§3) To determine whether unacylated-ghrelin (UAG) regulates NSPC plasticity, cell proliferation and immature neurons were quantified in wild-type mice following either peripheral administration of saline or UAG (i.v, 48 μg/day, n=6/group) for 7-days. The method was similar to that described in Example 1.

[2] = test system: immature DCX+ neurons within the SGZ; test: Immature DCX+ neurons in the SGZ of wild-type mice; format: in vivo; conditions: i.v. 48 μg/day for 7 days, vs vehicle
Description: as §1, §2, §3

Ghsr = conditions: cited from earlier work
adult rat hippocampus = test: BrdU+ cell proliferation in adult rat hippocampus after 7-day i.v. infusion (FIG. 1A); format: in vivo; conditions: 7-day i.v. infusion 80 μg/day; BrdU 50 mg/kg i.p 30 minutes prior to brain collection; vs vehicle
[3] = test system: spatial pattern separation; test: Spontaneous location recognition (SLR) task, spatial pattern separation; format: in vivo, rat; conditions: rats, 10 μg/kg i.p daily days 1-14, tested days 22-26
Protocol: A) Experimental paradigm B) Schematic of Spontaneous location recognition (SLR) task. During a sample phase animals were exposed to 3 identical objections (two were located close together (small separation) or very close together (X-small separation) and the 3rd was further away) for 10 minutes. 24 hours later the rats were exposed to 2 of the objects during the test phase and the time spent exploring each object was measured. Dotted objects indicate the original location during the sample phase. C) Discrimination ratios during the test phase for ‘novel’ conditions in the SLR task. […] D) Representative images of the new adult-born DG neurons (white arrows) co-expressing NeuN^+ and BrdU^+. […] Scale bar=100 μm.
(§4) Adult male Lister-hooded rats (n=12/group) were given daily injections of either saline or ghrelin (10 μg/kg i.p) (days 1-14) and BrdU (50 mg/kg i.p) on days 5-8 prior to analysis of spatial pattern separation using a spontaneous location recognition task (SLR) on days 22-26.
To reduce/avoid the acute LTP-mediated effects on pattern separation the final injection of ghrelin was given 7 days before the start of cognitive testing.

[4] = test system: new adult-born DG neurons; test: New adult-born neurons (BrdU+/NeuN+) and neuroblasts (DCX+) in rat DG; format: in vivo; conditions: rats; for total number of new adult-born neurones (BrdU+/NeuN+) in the DG: 10 μg/kg i.p daily days 1-14, BrdU days 5-8, vs saline
Protocol: as §4
Animals were anesthetized with sodium pentobarbital and perfused transcardially with 0.9% NaCl solution, followed by 4% paraformaldehyde (PFA) in 0.1M phosphate buffer, pH 7.4. Brains were post-fixed in 4% PFA for 24 h, and cryoprotected in 30% sucrose for 24 h. The brains were then sectioned on a freezing-stage microtome into a 30 μm thick coronal section series. Immunohistochemical staining was performed on free-floating sections.
For detection of BrdU, sections were pre-treated with 2N HCl for 30 mins at 37° C. and washed in 0.1 M borate buffer, pH8.5, for 10 min. Immunofluorescent double-labeling was performed.
Primary antibodies used were: mouse anti-BrdU (1:50 AbD Serotec, UK), goat anti-doublecortin (Santa Cruz Biotechnology, USA), mouse anti-NeuN (Chemicon, Temecula, Calif., USA). Sections were also stained with Hoechst (Invitrogen) and mounted with prolong-gold anti-fade reagent (Invitrogen).
A one-in-twelve series of 30 μm sections (360 μm apart) from each animal was immunohistologically stained (as described in Example 1 above) and analysed by fluorescent and/or confocal microscopy. Immunolabelled cells were counted also as described in Example 1. Only cells with complete/strong BrdU immunoreactivity, oval nuclei, were counted.

[5] = rats; 10 μg/kg i.p; cited from earlier work

Substance	Ki67+ cells (cell proliferation) in the DG of adult wild-type mice [1]	number of immature DCX+ neurons within the SGZ [2]	binding or activation of Ghsr (Ghsr)	number of BrdU+ cells in adult rat hippocampus (adult rat hippocampus)	Ki67+ cells (cell proliferation) in the DG of ghsr-/- mice ([1]; ghrelin-receptor null (ghsr-/-) mice)	Ki67+ cells (cell proliferation) in the DG of adult wild-type mice ([1]; listed as Ghrelin)	SLR task, discrimination of 'novel' location, X-small separation condition (pattern separation) [3]	SLR task, discrimination of 'novel' location, small separation condition [3]	SLR task, discrimination of 'novel' location, X-small separation condition (pattern separation) ([3]; listed as acyl-ghrelin)	total number of new adult-born neurones (BrdU+/NeuN+) in the DG [4]	total number of new adult-born neurones (BrdU+/NeuN+) in the DG ([4]; listed as Ghrelin)	total number of new adult-born neurones (BrdU+/NeuN+) in the DG ([4]; listed as acyl-ghrelin)	DG neuroblast number (DCX+) ([4]; 14 days after the final injection, data not shown)	food intake [5]
UAG: unacylated-ghrelin, the de-acylated form of ghrelin (GSSFLSPEHQRVQQRKESKKPPAKLQPR; Ghrelin-28 unacylated; UniProt Q9UBU3 24-51, looked up)	impairments observed in hippocampal cell proliferation; also recorded: reduced the number of dividing cells; also recorded: attenuated hippocampal cell proliferation	impairments; also recorded: reduced; also recorded: significant reduction in the number of immature DCX^+ neurons	does not bind or activate Ghsr											
ghrelin: gut hormone, 28 amino acid peptide with octanoyl modification on Ser-3; endogenous ligand of GHS-R 1a (GSS(Octanoyl)FLSPEHQRVQQRKESKKPPAKLQPR; UniProt Q9UBU3 24-51, looked up)	increased Ki67^+ cells			increased the number of BrdU^+ cells	no corresponding increase was observed; also recorded: inhibited the proliferative effect of ghrelin	significant increase in cell proliferation	only ghrelin treated rats showed enhanced exploratory behaviour; also recorded: able to distinguish between very similar spatial locations	enhanced exploratory behaviour for the ‘novel’ location in the small separation condition; also recorded: able to distinguish similar but distinct spatial locations	improved pattern separation learning	significantly increased	significantly increased the number of new adult-born neurons	increased the number of new adult born neurons	remained significantly higher	increase food intake
